In patent publication EP4268810A1 (priority 2022, dated 2023):
Where two headings read alike, the source gives them in different places.

Key:
in vitro [1] = conditions: human, caco-2
Description: (§1) Calu-3 (40.000/well), Huh7.5 (10.000/well) and CaCo2 (10.000/well) cells were seeded in 96-well plates in DMEM-Media. The cells were treated with the drug compounds at the indicated concentrations, negative control (non-treated), DMSO control and positive control (50% DMSO treated) were added, and plates were then stored in the IncuCyte® at 37 °C, 5 % CO2 for 72h measuring every 3 hours cell confluency via phase channel with 10x objective. For Analysis IncuCyte® S3 Software was used.
(§2) Plates were then stored in the IncuCyte® measuring every 3 hours cell confluency.

icSARS-CoV-2-mNG [2] = conditions: for Therapeutic range: CC50/IC50, CTG / Therapeutic range: CC50/IC50, IncuCyte / Therapeutic range: CC50/IC50, MTT: human, calu-3 cells
Huh7.5 cells [3] = assay: Cell viability via live cell imaging (IncuCyte); conditions: read-out: CC50 IncuCyte, 72h, cell confluency
Description: as §1, §2

Calu-3 cells [4] = conditions: read-out: CC50 IncuCyte, 72h, cell confluency, 4320 min
Description: as §1, §2

icSARS-CoV-2-mNG [5] = tested on: icSARS-CoV-2-mNG
in vitro [6] = conditions: human, calu-3 cells, CC50 IncuCyte
Description: as §1, §2

[7] = tested on: DENV type 2 reporter virus; assay: microbe, parasite or virus in culture; conditions: Dengue virus
icSARS-CoV-2-mNG [8] = assay: microbe, parasite or virus in culture; conditions: Severe acute respiratory syndrome coronavirus 2, Calu-3
[9] = tested on: DENV type 2 reporter virus
in vitro [10] = conditions: human, huh7.5 cells, CC50 MTT
Huh7.5 cells [11] = conditions: read-out: CC50 MTT, 72h, 4320 min
Calu-3 cells [12] = conditions: read-out: CC50 MTT, 72h

COc1[nH]c(=O)c(C(=O)C(C)CC(C)C(Cl)CCl)c(O)c1OC (centres unmarked) [Atpenin A5]
CC50 at 72 h (in vitro [1]): > 60 µM
Therapeutic range: CC50/IC50, CTG (icSARS-CoV-2-mNG [2]): CTG: 1.72
Therapeutic range: CC50/IC50, IncuCyte (icSARS-CoV-2-mNG [2]): IncuCyte: > 320
Therapeutic range: CC50/IC50, MTT (icSARS-CoV-2-mNG [2]): MTT: 24
CC50 (Huh7.5 cells [3]): 65 µM
CC50 (Calu-3 cells [4]): > 80 µM
SARS-CoV-2 infection (infection rate, mNG+/Hoechst+ cells) (icSARS-CoV-2-mNG [5]): inhibited SARS-CoV-2 infection of the cell lines in a dose-dependent manner
CC50 at 72 h (in vitro [6]; 72h, cell confluency): > 160 µM
IC50 ([7]; Huh7.5, 24 h): 0.27 µM
IC50 (icSARS-CoV-2-mNG [8]): 0.5 µM
Therapeutic range: CC50/IC50, CTG ([9]; Dengue Virus in Huh7.5 cells, CC50 by CTG): CTG: 229.5
Therapeutic range: CC50/IC50, IncuCyte ([9]; Dengue Virus in Huh7.5 cells, CC50 by IncuCyte): IncuCyte: 240.7
Therapeutic range: CC50/IC50, MTT ([9]; Dengue Virus in Huh7.5 cells, CC50 by MTT): MTT: 375.2

CN(C)C(=N)N=C(N)N [Metformin]
toxicity (staining of the nuclei, cell count) (icSARS-CoV-2-mNG [2]): without any cytotoxicity
IC50 (icSARS-CoV-2-mNG [8]): 459 µM

[H]/N=C(/N)N/C(=N/[H])NCCc1ccccc1 [Phenformin, phenformin]
toxicity (staining of the nuclei, cell count) (icSARS-CoV-2-mNG [2]): without any toxicity
Therapeutic range: CC50/IC50, CTG (icSARS-CoV-2-mNG [2]): CTG: 1306.4
Therapeutic range: CC50/IC50, IncuCyte (icSARS-CoV-2-mNG [2]): IncuCyte: 867.1
Therapeutic range: CC50/IC50, MTT (icSARS-CoV-2-mNG [2]): MTT: 876.3
CC50 at 72 h (in vitro [10]): 61 µM
CC50 (Huh7.5 cells [11]): 61.2 µM
SARS-CoV-2 infection (infection rate, mNG+/Hoechst+ cells) (icSARS-CoV-2-mNG [5]): inhibited SARS-CoV-2 infection of the cell lines in a dose-dependent manner
CC50 (Calu-3 cells [12]): 1520 µM
CC50 at 72 h (in vitro [6]): 1500 µM
IC50 ([7]; Huh7.5): 18.6 µM
IC50 ([7]; Huh7.5, 24 h): 18.6 µM
IC50 (icSARS-CoV-2-mNG [8]): 1.73 µM
Therapeutic range: CC50/IC50, CTG ([9]; human, huh7.5 cells): CTG: 109.2
Therapeutic range: CC50/IC50, IncuCyte ([9]; human, huh7.5 cells): IncuCyte: 59.9
Therapeutic range: CC50/IC50, MTT ([9]; human, huh7.5 cells): MTT: 3.3

CC(C)Cc1nn(C)c(=O)c2c(SCCCO)n(Cc3cccc4ccccc34)cc12 [SR13800]
toxicity (cell viability by Hoechst staining of the nucleus) (icSARS-CoV-2-mNG [5]): toxic

O[C@H]1[C@H](O)[C@@H](O)[C@H](O)[C@@H](O)[C@@H]1O [Scyllo-Inositol]
SARS-CoV-2 infection (infection rate, mNG+/Hoechst+ cells) (icSARS-CoV-2-mNG [5]): did not show any activity
